What was measured:
[1] = Pharmacokinetics following a single oral dose in rats; format: in vivo; details: rat, nominal 10 mg/kg, male Sprague-Dawley rats, plasma
Protocol: Pharmacokinetic studies of the compounds in Table 15 were performed to assess the pharmacokinetics following a single oral dose in male Sprague-Dawley rats. Two rats were given a single po dose of 5 mL/kg of a nominal 2 mg/mL (10 mg/kg) composition of test compound in vehicle. Following dosing, blood samples were collected over a period of 24 hours. Sample times were 5, 15 and 30 minutes then 1, 2, 4, 6, 8 and 12 hours. Following collection, blood samples were centrifuged and the plasma fraction analysed for concentration of test compound by LCMS.

Human KLK1 = Human KLK1 (Homo sapiens (Human), UniProt P06870); experiment: Determination of the IC50 for KLK1; format: biochemical; details: 25° C., fluorogenic substrate H-DVal-Leu-Arg-AFC
Chain of Human KLK1 (P06870 25-262): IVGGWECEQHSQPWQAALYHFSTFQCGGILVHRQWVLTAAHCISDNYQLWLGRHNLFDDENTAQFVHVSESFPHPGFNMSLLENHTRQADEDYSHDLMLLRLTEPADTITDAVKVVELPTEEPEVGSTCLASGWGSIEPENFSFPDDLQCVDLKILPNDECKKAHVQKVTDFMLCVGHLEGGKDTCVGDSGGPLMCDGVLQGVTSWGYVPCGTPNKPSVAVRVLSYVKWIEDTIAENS
Protocol: Determination of the IC50 for KLK1
(§1) Human KLK1 (Callbiochem) was incubated at 25° C. with the fluorogenic substrate H-DVal-Leu-Arg-AFC and various concentrations of the test compound. Residual enzyme activity (initial rate of reaction) was determined by measuring the change in […] at 410 nm and the IC50 value for the test compound was determined.

Human plasma kallikrein = Human plasma kallikrein (Homo sapiens (Human), UniProt P03952); experiment: Determination of the IC50 for plasma kallikrein; format: biochemical; details: 25° C., fluorogenic substrate H-DPro-Phe-Arg-AFC; read-out: IC50 (human PKaI)
Chain of Human plasma kallikrein (P03952 391-638): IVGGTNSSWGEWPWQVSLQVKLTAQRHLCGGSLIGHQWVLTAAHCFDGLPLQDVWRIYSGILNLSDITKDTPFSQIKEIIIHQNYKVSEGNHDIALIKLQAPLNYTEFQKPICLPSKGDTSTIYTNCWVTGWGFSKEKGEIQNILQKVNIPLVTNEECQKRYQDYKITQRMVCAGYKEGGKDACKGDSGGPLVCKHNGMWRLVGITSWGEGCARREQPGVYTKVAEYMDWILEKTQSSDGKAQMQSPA
Chain of Human plasma kallikrein (P03952 20-390 partner): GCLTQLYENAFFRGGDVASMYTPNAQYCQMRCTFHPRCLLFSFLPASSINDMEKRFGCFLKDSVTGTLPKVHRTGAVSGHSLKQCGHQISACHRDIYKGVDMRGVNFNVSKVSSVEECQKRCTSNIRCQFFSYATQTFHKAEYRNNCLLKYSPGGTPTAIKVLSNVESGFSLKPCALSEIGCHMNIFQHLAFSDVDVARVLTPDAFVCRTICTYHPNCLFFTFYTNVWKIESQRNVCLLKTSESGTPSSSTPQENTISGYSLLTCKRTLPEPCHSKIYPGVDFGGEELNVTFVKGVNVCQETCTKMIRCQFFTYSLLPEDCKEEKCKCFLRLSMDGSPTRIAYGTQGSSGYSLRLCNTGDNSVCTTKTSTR
Protocol: Determination of the IC50 for Plasma Kallikrein
as §1, with “plasma kallikrein (Protogen)” for “KLK1 (Callbiochem)”, “H-DPro-Phe-Arg-AFC” for “H-DVal-Leu-Arg-AFC”

[2] = in vivo; cited from earlier work
diabetic rats = details: cited from earlier work
Human FXIa = Human FXIa (Homo sapiens (Human), UniProt P03951); experiment: Determination of the % inhibition for FXIa; format: biochemical; details: 40 μM test compound, 25° C., substrate Z-Gly-Pro-Arg-AFC
Chain of Human FXIa (P03951 388-625): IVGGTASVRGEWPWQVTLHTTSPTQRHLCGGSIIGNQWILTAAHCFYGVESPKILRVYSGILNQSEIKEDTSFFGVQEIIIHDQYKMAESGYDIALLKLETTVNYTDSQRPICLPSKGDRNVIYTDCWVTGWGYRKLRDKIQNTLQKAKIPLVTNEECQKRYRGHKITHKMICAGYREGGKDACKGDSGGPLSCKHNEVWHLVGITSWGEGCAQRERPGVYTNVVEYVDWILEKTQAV
Chain of Human FXIa (P03951 19-387 partner): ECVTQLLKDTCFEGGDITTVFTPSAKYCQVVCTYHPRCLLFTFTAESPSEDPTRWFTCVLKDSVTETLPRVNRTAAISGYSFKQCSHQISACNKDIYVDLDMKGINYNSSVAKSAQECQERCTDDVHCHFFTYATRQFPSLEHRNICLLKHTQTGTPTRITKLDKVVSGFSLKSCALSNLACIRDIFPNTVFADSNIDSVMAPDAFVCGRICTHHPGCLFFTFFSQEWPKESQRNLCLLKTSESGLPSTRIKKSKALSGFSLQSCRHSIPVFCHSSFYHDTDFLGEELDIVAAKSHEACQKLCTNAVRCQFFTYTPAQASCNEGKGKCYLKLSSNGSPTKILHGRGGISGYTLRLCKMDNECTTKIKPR
Protocol: Determination of the % Inhibition for FXIa
Human FXIa (Enzyme Research Laboratories) was incubated at 25° C. with the fluorogenic substrate Z-Gly-Pro-Arg-AFC and 40 μM of the test compound. Residual enzyme activity (initial rate of reaction) was determined by measuring the change in […].

For `COCc1nn(Cc2ccc(Cn3ccccc3=O)cc2)cc1C(=O)NCc1cccc(OC)c1F` [Example 53, N-[(2-fluoro-3-methoxyphenyl)methyl]-3-(methoxymethyl)-1-({4-[(2-oxopyridin-1-yl)methyl]phenyl}methyl)pyrazole-4-carboxamide], the Cmax [1] was 1030 ng/mL, the Tmax [1] was 15 min and the IC50 (Human KLK1) was > 10000 nM. For the same compound, the IC50 (Human plasma kallikrein) was 20.2 nM.
In the case of `N=C(N)c1ccc(CNC(=O)c2cnn(Cc3ccccc3)c2)cc1` [ASP-440], the oral availability [2] is listed as “poor oral availability” and the “effect on retinal vascular permeability and retinal blood flow abnormalities” value (diabetic rats) is listed as “ameliorated both retinal vascular permeability and retinal blood flow abnormalities”.
With `CCOc1ccn(Cc2ccc(Cn3cc(C(=O)NCc4c(F)ccc(OC)c4F)c(COC)n3)cc2)c(=O)c1` [Example 109, N-[(2,6-difluoro-3-methoxyphenyl)methyl]-1-({4-[(4-ethoxy-2-oxopyridin-1-yl)methyl]phenyl}methyl)-3-(methoxymethyl)pyrazole-4-carboxamide] the inhibition at 40 µM (Human FXIa) was 2%, the IC50 (Human KLK1) was > 10000 nM and the IC50 (Human plasma kallikrein) was 2980 nM.
For `COCc1nn(Cc2ccc(Cn3ccccc3=O)cc2)cc1C(=O)NCc1c(OC)ccc(OC)c1F` [Example 54, N-[(2-fluoro-3,6-dimethoxyphenyl)methyl]-3-(methoxymethyl)-1-({4-[(2-oxopyridin-1-yl)methyl]phenyl}methyl)pyrazole-4-carboxamide], the inhibition at 40 µM (Human FXIa) was 17%, the IC50 (Human KLK1) was > 40000 nM and the IC50 (Human plasma kallikrein) was 2.1 nM.
For `COCc1nn(Cc2ccc(Cn3ccccc3=O)cc2)cc1C(=O)NCc1ccccc1C(=O)OC` [Example 131, methyl 2-({[3-(methoxymethyl)-1-({4-[(2-oxopyridin-1-yl)methyl]phenyl}methyl)pyrazol-4-yl]formamido}methyl)benzoate], the inhibition at 40 µM (Human FXIa) was 0%, the IC50 (Human KLK1) was > 10000 nM and the IC50 (Human plasma kallikrein) was 1510 nM.
In the case of `CCc1cccc(CNC(=O)c2cn(Cc3ccc(Cn4ccccc4=O)cc3)nc2COC)c1F` [Example 132, N-[(3-ethyl-2-fluorophenyl)methyl]-3-(methoxymethyl)-1-({4-[(2-oxopyridin-1-yl)methyl]phenyl}methyl)pyrazole-4-carboxamide], the inhibition at 40 µM (Human FXIa) is reported as 0%, the IC50 (Human KLK1) is reported as > 40000 nM and the IC50 (Human plasma kallikrein) is reported as 135 nM.
With `COCc1nn(Cc2ccc(Cn3ccccc3=O)cc2)cc1C(=O)NCc1c(C#N)ccc(OC)c1F` [Example 77, N-[(6-cyano-2-fluoro-3-methoxyphenyl)methyl]-3-(methoxymethyl)-1-({4-[(2-oxopyridin-1-yl)methyl]phenyl}methyl)pyrazole-4-carboxamide] the inhibition at 40 µM (Human FXIa) was 28%, the Cmax [1] was 397 ng/mL and the Tmax [1] was 30 min. For the same compound, the IC50 (Human plasma kallikrein) was 0.6 nM.
With `COCc1nn(Cc2ccc(Cn3ccccc3=O)cc2)cc1C(=O)NCc1ccccc1C(F)(F)F` [Example 63, 3-(methoxymethyl)-1-({4-[(2-oxopyridin-1-yl)methyl]phenyl}methyl)-N-{[2-(trifluoromethyl)phenyl]methyl}pyrazole-4-carboxamide] the inhibition at 40 µM (Human FXIa) was 0%, the IC50 (Human KLK1) was > 10000 nM and the IC50 (Human plasma kallikrein) was 342 nM.
In the case of `Nc1nn(Cc2ccc(Cn3ccccc3=O)cc2)cc1C(=O)NCc1c(F)cccc1C(F)(F)F` [Example 70, 3-amino-N-{[2-fluoro-6-(trifluoromethyl)phenyl]methyl}-1-({4-[(2-oxopyridin-1-yl)methyl]phenyl}methyl)pyrazole-4-carboxamide], the inhibition at 40 µM (Human FXIa) is reported as 6%, the IC50 (Human KLK1) is reported as > 10000 nM and the IC50 (Human plasma kallikrein) is reported as 26.7 nM.
In the case of `Nc1nn(Cc2ccc(Cn3ccccc3=O)cc2)cc1C(=O)NCC1CNc2ccc(Cl)cc2O1` (stereo not shown) [Example 140, 3-amino-N-[(7-chloro-3,4-dihydro-2H-1,4-benzoxazin-2-yl)methyl]-1-({4-[(2-oxopyridin-1-yl)methyl]phenyl}methyl)pyrazole-4-carboxamide], the inhibition at 40 µM (Human FXIa) is reported as 9%, the IC50 (Human KLK1) is reported as > 40000 nM and the IC50 (Human plasma kallikrein) is reported as 10.6 nM.
Work on `COCc1nn(Cc2ccc(Cn3ccccc3=O)cc2)cc1C(=O)NCc1c(F)ccc(OC)c1F` [Example 66, N-[(2,6-difluoro-3-methoxyphenyl)methyl]-3-(methoxymethyl)-1-({4-[(2-oxopyridin-1-yl)methyl]phenyl}methyl)pyrazole-4-carboxamide] yielded an inhibition at 40 µM (Human FXIa) of 4%, a Cmax [1] of 2890 ng/mL and a Tmax [1] of 60 min. The IC50 (Human KLK1) was > 10000 nM and the IC50 (Human plasma kallikrein) was 4.6 nM.
For `O=C(NCc1c(F)cccc1C(F)(F)F)c1cn(Cc2ccc(Cn3ccccc3=O)cc2)nc1C(F)(F)F` [Example 51, N-{[2-fluoro-6-(trifluoromethyl)phenyl]methyl}-1-({4-[(2-oxopyridin-1-yl)methyl]phenyl}methyl)-3-(trifluoromethyl)pyrazole-4-carboxamide], the Cmax [1] was 101 ng/mL, the Tmax [1] was 15 min and the IC50 (Human KLK1) was > 40000 nM. The IC50 (Human plasma kallikrein) was 48.9 nM.
For `COCc1nn(Cc2ccc(Cn3ccccc3=O)cc2)cc1C(=O)NCc1nc(OC)ccc1F` [Example 42, N-[(3-fluoro-6-methoxypyridin-2-yl)methyl]-3-(methoxymethyl)-1-({4-[(2-oxopyridin-1-yl)methyl]phenyl}methyl)pyrazole-4-carboxamide], the inhibition at 40 µM (Human FXIa) was 1%, the IC50 (Human KLK1) was > 10000 nM and the IC50 (Human plasma kallikrein) was 831 nM.
With `COc1cccc(CNC(=O)c2cn(Cc3ccc(N4CCCC4)nc3)nc2C(F)(F)F)c1F` [Example 126, N-[(2-fluoro-3-methoxyphenyl)methyl]-1-{[6-(pyrrolidin-1-yl)pyridin-3-yl]methyl}-3-(trifluoromethyl)pyrazole-4-carboxamide] the inhibition at 40 µM (Human FXIa) was 10%, the IC50 (Human KLK1) was > 10000 nM and the IC50 (Human plasma kallikrein) was 742 nM.
Work on `COCc1nn(Cc2ccc(Cn3ccccc3=O)cc2)cc1C(=O)NCc1nccc(OC)c1F` [Example 41, N-[(3-fluoro-4-methoxypyridin-2-yl)methyl]-3-(methoxymethyl)-1-({4-[(2-oxopyridin-1-yl)methyl]phenyl}methyl)pyrazole-4-carboxamide] yielded an inhibition at 40 µM (Human FXIa) of 0%, a Cmax [1] of 1530 ng/mL and a Tmax [1] of 180 min. The IC50 (Human KLK1) was > 40000 nM.
For `COc1cccc(CNC(=O)c2cn(Cc3ccc(Cn4ccccc4=O)cc3)nc2N)c1F` [Example 2, 3-Amino-1-[4-(2-oxo-2H-pyridin-1-ylmethyl)-benzyl]-1H-pyrazole-4-carboxylic acid 2-fluoro-3-methoxy-benzylamide], the inhibition at 40 µM (Human FXIa) was 8%, the Cmax [1] was 351 ng/mL and the Tmax [1] was 60 min. The IC50 (Human KLK1) was > 10000 nM and the IC50 (Human plasma kallikrein) was 8.7 nM.
With `COc1cccc(CNC(=O)c2cn(Cc3ccc(Cn4ccccc4=O)cc3)nc2N(C)C)c1F` [Example 59, 3-(dimethylamino)-N-[(2-fluoro-3-methoxyphenyl)methyl]-1-({4-[(2-oxopyridin-1-yl)methyl]phenyl}methyl)pyrazole-4-carboxamide] the inhibition at 40 µM (Human FXIa) was 0%, the IC50 (Human KLK1) was > 10000 nM and the IC50 (Human plasma kallikrein) was 73.4 nM.
In the case of `COCc1nn(Cc2ccc(Cn3ccccc3=O)cc2)cc1C(=O)NCc1c(C)cccc1F` [Example 97, N-[(2-fluoro-6-methylphenyl)methyl]-3-(methoxymethyl)-1-({4-[(2-oxopyridin-1-yl)methyl]phenyl}methyl)pyrazole-4-carboxamide], the inhibition at 40 µM (Human FXIa) is reported as 0%, the IC50 (Human KLK1) is reported as > 10000 nM and the IC50 (Human plasma kallikrein) is reported as 153 nM.
With `COCc1nn(Cc2ccc(Cn3ccc(C)cc3=O)cc2)cc1C(=O)NCc1c(F)ccc(OC)c1F` [Example 106, N-[(2,6-difluoro-3-methoxyphenyl)methyl]-3-(methoxymethyl)-1-({4-[(4-methyl-2-oxopyridin-1-yl)methyl]phenyl}methyl)pyrazole-4-carboxamide] the inhibition at 40 µM (Human FXIa) was 2%, the IC50 (Human KLK1) was > 10000 nM and the IC50 (Human plasma kallikrein) was 140 nM.

From patent US10364238B2, “N-((het) arylmethyl)-heteroaryl-carboxamides compounds as plasma kallikrein inhibitors” (KALVISTA PHARMACEUTICALS LIMITED, priority 2014, dated 2019)
